US11883379B1, “9-flouro-dibenzo[B,G]indeno[1′, 2′:3,4]fluoreno-[1,2-D]oxonine-5, 11, 16,21-tetraone as an antimicrobial agent” (KING FAISAL UNIVERSITY, priority 2023, dated 2024)

melting point: 288 to 289 °C
Structure (SMILES): O=C1Oc2ccc(F)cc2-c2c(c3c4ccccc4c(=O)c3c3c2c(=O)c2ccccc23)C(=O)c2ccccc21 [9-fluoro-dibenzo[b,g]indeno[1′,2′:3,4]fluoreno-[1,2-d]oxonine-5,11,16,21-tetraone]
